Laboratory results reported in patent US10246457B2, “Indazole and azaindazole Btk inhibitors” (MERCK SHARP & DOHME CORP., priority 2015, dated 2019).

Key:
[1] = target: 25P Btk enzyme (un-activated full-length Btk) (Homo sapiens (Human), UniProt Q06187); test: 25P Btk Enzyme Activity Assay (LANCE TR-FRET); assay type: biochemical; settings: un-activated Btk (25P), 25 μM ATP, 60 minute compound and enzyme incubation; read-out: Btk binding IC50 (nM) with 25 P
Method: Preparation of Un-Activated Btk Enzyme (25P Btk)
Un-activated full-length Btk recombinant protein was purified from baculovirus-transfected Sf21 cells. […] This protein represents the un-activated state of the Btk enzyme.
25P Btk Enzyme Activity Assay
Btk enzymatic activity was determined with the LANCE (Lanthanide Chelate Excite) TR-FRET (lime-resolved fluorescence resonance energy transfer) assay. […] To each well of a black non-binding surface Corning 384-well microplate (Corning Catalog #3820), 5 nL of compound (2000 fold dilution in final assay volume of 10 μL) was dispensed, followed by the addition of 7.5 μL of 1× kinase buffer (50 mM Hepes 7.5, 10 mM MgCl2, 0.01% Brij-35, 1 mM EGTA, 0.05% BSA and 1 mM DTT) containing 26.67 pg/μL (266.7 pM) of 25P Btk enzyme (recombinant protein from baculovirus-transfected Sf9 cells: full-length Btk; MW=79378 Da). Following a 60 minute compound and enzyme incubation, each reaction was initiated by the addition of 2.5 μL 1× kinase buffer containing 8 μM biotinylated “A5” peptide (Biotin-EQEDEPEGDYFEWLE-NH2), and 100 μM ATP. The final reaction in each well of 10 consists of 200 pM 25P Btk, 2 μM biotin-A5-peptide, and 25 μM ATP. Phosphorylation reactions were allowed to proceed for 120 minutes. Reactions were immediately quenched by the addition of 20 uL of 1× quench buffer (15 mM EDTA, 25 mM Hepes 7.3, and 0.1% Triton X-100) containing detection reagents (0.626 nM of LANCE-Eu-W1024-anti-phosphoTyrosine antibody, PerkinElmer and 86.8 nM of Streptavidin-conjugated Dylight 650, Dyomics/ThermoFisher Scientific). After 60 minutes incubation with detection reagents, reaction plates were read on a PerkinElmer EnVision plate reader using standard TR-FRET protocol. Briefly, excitation of donor molecules (Eu-chelate:anti-phospho-antibody) with a laser light source at 337 nm produces energy that can be transferred to Dylight-650 acceptor molecules if this donor:acceptor pair is within close proximity. Fluorescence intensity at both 665 nm (acceptor) and 615 nm (donor) are measured and a TR-FRET ratio calculated for each well (acceptor intensity/donor intensity). IC50 values were determined by 4 parameter robust fit of TR-FRET ratio values vs. (Log10) compound concentrations.

[2] = target: 100P Btk enzyme (activated full-length Btk) (Homo sapiens (Human), UniProt Q06187); test: 100P Btk Enzyme Activity Assay (LANCE TR-FRET); assay type: biochemical; settings: activated Btk (100P), 25 μM ATP, 60 minute compound and enzyme incubation; top concentration 1000 nM; read-out: Btk binding IC50 (nM) with 100 P
Sequence of 100P Btk enzyme (activated full-length Btk) (Q06187 whole entry): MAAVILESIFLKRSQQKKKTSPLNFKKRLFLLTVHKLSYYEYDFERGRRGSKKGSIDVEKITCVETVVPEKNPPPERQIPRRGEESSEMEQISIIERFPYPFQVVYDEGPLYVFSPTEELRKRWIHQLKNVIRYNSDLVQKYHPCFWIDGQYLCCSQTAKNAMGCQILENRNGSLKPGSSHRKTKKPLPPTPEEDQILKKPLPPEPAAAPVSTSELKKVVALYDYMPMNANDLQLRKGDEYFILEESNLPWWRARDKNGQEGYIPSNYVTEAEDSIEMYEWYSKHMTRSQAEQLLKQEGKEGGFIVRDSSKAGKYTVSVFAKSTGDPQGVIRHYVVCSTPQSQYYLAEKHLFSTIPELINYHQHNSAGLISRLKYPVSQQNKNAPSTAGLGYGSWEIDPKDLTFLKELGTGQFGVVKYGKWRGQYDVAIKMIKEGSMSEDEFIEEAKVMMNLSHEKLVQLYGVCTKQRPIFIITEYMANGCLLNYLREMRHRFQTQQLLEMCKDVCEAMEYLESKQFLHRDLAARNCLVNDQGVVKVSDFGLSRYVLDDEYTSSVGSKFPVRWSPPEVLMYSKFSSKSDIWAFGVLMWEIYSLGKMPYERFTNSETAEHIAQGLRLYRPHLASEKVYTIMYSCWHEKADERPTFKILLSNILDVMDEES
Method: Activated full-length Btk recombinant enzyme was expressed and purified in the same manner as the […] enzyme, except an auto-phosphorylation step was added to the purification scheme. […] This protein represents the activated state of the Btk enzyme. […] Btk Enzyme Activity Assay Btk enzymatic activity was determined with the LANCE (Lanthanide Chelate Excite) TR-FRET (lime-resolved fluorescence resonance energy transfer) assay. […] MW=79378 Da). […] Phosphorylation reactions were allowed to proceed for 45 minutes. […] After 60 minutes incubation with detection reagents, reaction plates were read on a PerkinElmer EnVision plate reader using standard TR-FRET protocol. Briefly, excitation of donor molecules (Eu-chelate:anti-phospho-antibody) with a laser light source at 337 nm produces energy that can be transferred to Dylight-650 acceptor molecules if this donor:acceptor pair is within close proximity. Fluorescence intensity at both 665 nm (acceptor) and 615 nm (donor) are measured and a TR-FRET ratio calculated for each well (acceptor intensity/donor intensity). […] (Log10) compound concentrations.

Sequence of 25P Btk enzyme (un-activated full-length Btk) (Q06187 whole entry): as above

SMILES | IC50 [1] [nM] | IC50 [2] [nM]
CC(C)(C)c1cc(F)c2c(=O)n(-c3cccc(-c4cc(C(N)=O)c5[nH]nc(N)c5c4)c3CO)ncc2c1 [Example 3, 3-amino-5-[3-(6-tert-butyl-8-fluoro-1-oxophthalazin-2(1H)-yl)-2-(hydroxymethyl)phenyl]-1H-indazole-7-carboxamide] | 0.16 | 16
CNC(=O)c1cc(-c2cccc(-n3ncc4cc(C(C)(C)C)cc(F)c4c3=O)c2CO)cc2c(N)n[nH]c12 [Example 11, 3-amino-5-[3-(6-tert-butyl-8-fluoro-1-oxophthalazin-2(1H)-yl)-2-(hydroxymethyl)phenyl]-N-methyl-1H-indazole-7-carboxamide] | 0.16 | 29.3
CC(C)(C)c1cc(F)c2c(c1)CCN(c1cccc(-c3cc(C(N)=O)c4[nH]nc(N)c4c3)c1CO)C2=O [Example 16, 3-amino-5-[3-(6-tert-butyl-8-fluoro-1-oxo-3,4-dihydroisoquinolin-2(1H)-yl)-2-(hydroxymethyl)phenyl]-1H-indazole-7-carboxamide] | 0.49 | 145

Results, then the compound that gave them:

IC50 [1] [nM] | IC50 [2] [nM] | SMILES
0.096 | 5.3 | COCCn1cc(-c2cc(-c3cccc(-n4ncc5cc(C(C)(C)C)cc(F)c5c4=O)c3CO)cc3c(N)n[nH]c23)cn1 [Example 26, 2-(3-(3-amino-7-(1-(2-methoxyethyl)-1H-pyrazol-4-yl)-1H-indazol-5-yl)-2-(hydroxymethyl)phenyl)-6-(tert-butyl)-8-fluorophthalazin-1(2H)-one]
0.16 | 13 | CC(C)n1ccc(-c2cc(-c3cccc(-n4ncc5cc(C(C)(C)C)cc(F)c5c4=O)c3CO)cc3c(N)n[nH]c23)n1 [Example 17, 2-[3-{3-amino-7-[1(1-methylethyl)-1H-pyrazol-3-yl]-1H-indazol-5-yl}-2-(hydroxymethyl)phenyl]-6-tert-butyl-8-fluorophthalazin-1(2H)-one]
9.5 | 801 | CC(C)(C)c1cc(F)c2c(=O)n(-c3cccc(-c4cc5c(N)n[nH]c5cn4)c3CO)ncc2c1 [Example 21, 2-[3-(3-amino-1H-pyrazolo[3,4-c]pyridin-5-yl)-2-(hydroxymethyl)phenyl]-6-tert-butyl-8-fluorophthalazin-1(2H)-one]
